According to US5447957A, “Anti-inflammatory compounds” (SmithKline Beecham Corp., priority 1994, dated 1995):
Like-named read-outs stand apart in the source and are kept apart here.

How the values were obtained:
CoA-IT = assay: Assay (b): CoA-IT activity in U937 cell microsomes; type: biochemical, human; settings: generally at 50 μM or less
Excerpt: Assay (b): CoA-IT Activity
The following is a method to measure CoA-IT activity and the effects of compounds on CoA-IT activity. The assay is based upon mixing cellular material containing CoA-IT activity with a stable lyso phospholipid such as […] and measuring the production of phospholipid product such as […] occurring in the absence of added CoA or CoA-fatty acids.
Any inflammatory cell that contains high levels of CoA-IT activity can be used, such as neutrophils, macrophages or cell lines such as U937 cells. […] Cells were grown without differentiation (basal state) by any agent, such as dimethyl sulfoxide. As used herein, "inflammatory cells" include, but are not limited to neutrophils, macrophages, monocytes, lymphocytes, eosinophils, basophils, and mast cells.
Microsomes were prepared using standard techniques. In this case, cells were washed with a buffer of 250 mM sucrose, 10 mM Tris, 1 mM EGTA, 1 mM MgCl2, pH 7.4 and ruptured by N2 cavitation (750 psi, 10 minutes). The ruptured cells were centrifuged 1000× g, 5 minutes. The resulting supernatant was centrifuged at 20,000×g,~20 minutes. Microsomes were prepared from this supernatant by centrifugation at 100,000× g, 60 minutes. The resulting pellet was washed once with assay buffer (150 mM NaCl, 10 mM Na2 KPO4, 1 mM EGTA, pH 7.4), recentrifuged and the pellet resuspended in assay buffer (4-20 mg protein/ml) and was stored at -80° C. until assayed.
CoA-IT activity was measured in 1.5 ml centrifuge tubes in a total volume of 100 ul. Microsomes were diluted in assay buffer to the desired protein concentration (6-20 ug/tube). The reaction was initiated by addition of [3H] 1-alkyl-2-lyso-sn-glycero-3-phosphocholine (GPC)(~0.1 uCi/tube) and 1 μM final cold 1-alkyl-2-lyso-GPC in assay buffer with 0.25 mg/ml fatty acid-poor bovine serumalbumin (BSA) (Calbiochem, La Jolla, Calif.). [3H]1-alkyl-2-lyso-GPC, approximately 50 Ci/mmol, was from NEN-Dupont (Boston, Mass.) and cold 1-alkyl-2-lyso-GPC was from Biomol (Plymouth Meeting, Penn.). Microsomes were pretreated with desired agents for the desired time (10 minutes) before the addition of [3H]1-alkyl-2-lyso-GPC. The reaction was run for the desired time (10 minutes) at 37° C. The reaction was stopped and the lipids extracted by addition of 100 ul of chloroform:methanol (1:2, v/v) followed by 100 ul of chloroform and 100 ul of 1M KCI. The samples were vortexed and centrifuged at high speed in a microfuge for 2-3 minutes. An aliquot of the chloroform-extracted materials were separated, usually by TLC in chloroform/methanol/acetic acid/water (50:25:8:4, v/v), visualized by radioscanning (Bioscan) and the product, [3H] 1-alkyl-2-acyl-GPC, was scraped and quantified by liquid scintillation spectroscopy. […] Other methods can be used to separate substrate from product, including but not limited to column chromatography, affinity chromatography and post reaction derivitization.

human neutrophils = assay: Assay (d): Production of Platelet-Activating Factor (PAF), A23187-challenged neutrophils; type: cell-based; settings: A23187 2 μM
Experimental: Assay (d): Assay for Production of Platelet-Activating Factor (PAF)
Blood is obtained from normal humans and neutrophils were isolated as described for the arachidonic acid release assay, above. The final leukocyte preparation should be of greater than 95% purity and viability.
Neutrophils were suspended in PBS at concentrations of 5 to 20×10^6 cells per ml. Cells were added to test tubes and treated with the desired compounds for 5 to 10 minutes, then challenged with calcium ionophore A23187, 2 μM and 20-30 μCi of [3H]acetic acid (NEN-Dupont, Boston, Mass.), or the vehicle of PBS with 0.25-1 mg/ml. After 5 to 20 minutes, the reactions were terminated by addition of an equal volume of chloroform:methanol (1:2, v/v) to the samples and the lipids were extracted by addition of equal volumes of chloroform and distilled water. The samples were vortexed and centrifuged at high speed and the chloroform layer removed to a clean tube.
The chloroform from each tube was evaporated to dryness and the material suspended in a small volume of chloroform or chloroform:methanol (25-100 μl) and the total material spotted on a Silica TLC plate. The plates were developed in chloroform/methanol/acetic acid/water (50:25:8:4, v/v) visualized by radioscanning (Bioscan) and the product, [^3 H]PAF, was scraped and quantified by liquid scintillation spectroscopy. […]

human monocytes = assay: Assay (f): stimulated eicosanoid (PGE2, LTC4) release by human monocytes; type: cell-based; settings: Monocyte, 0.25 h, A23187 1 μM, 15 min
Experimental: Assay (f): Measurement of stimulated eicosanoid release by human monocytes.
Leukocyte-rich leukopaks obtained from Biological Specialties (Lansdale, Pa.) were collected from male volunteers who were not taking anti-inflammatory drugs. Leukopaks were centrifuged (90× g for 15 min) twice to remove the platelet-rich plasma. The cell pellet was washed by centrifugation and resuspended in HBSS without Ca^2+ or Mg^2+. Histopaque 1077 was layered under the cell suspension and centrifuged at 400× g for 30 min to obtain the buffy coat. The interfacial buffy coat, containing monocytes and lymphocytes, was removed and saved. The buffy coat was washed twice with HBSS without Ca^2+ or Mg^2+ by centrifugation. The cell pellet (4-6×10^8 cells/30 mls) was resuspended in iso-osmotic media (RPMI-1640, 10% heat inactivated fetal bovine serum (FBS), 0.2 mM L-glutamine, 2.5 mM HEPES) and layered over an equal volume of 46% Percol mixture (10X PBS/Percol; 9.25/0.75) and 54% iso-osmotic media and centrifuged for 30 min at 1000× g (Marshall and Roshak, Biochem. Cell Biol. 71: 331-339, 1993). The monocyte population located at the interface of the Percoll gradient was removed and washed twice in HBSS without Ca^2+ or Mg^2+.
Monocytes (5×10^6 /ml) were incubated as a suspension in serum-free RPMI- 1640 medium containing the vehicle DMSO (<1%) or drug for 30 min at […] after which vehicle or stimuli was added for the indicated time. The stimulating agent is solubilized in DMSO and appropriate vehicle controls were included in all experiments. The amount of stimuli was chosen from the linear portion of a concentration versus product curve usually representing 60-80% maximal stimulation over the indicated incubation time at 37° C. (A23187, 1 μM,(15 min). The reaction was terminated by reduction of pH through addition of citric acid and centrifugation (10 min, 400× g, 4° C.). Cell viability was monitored before and after experiments using trypan blue exclusion. The cell-free media was decanted and stored at -70° C. until analyzed. Prostaglandin E2 and LTC4 were directly measured in cell-free media using enzyme immunoassay (EIA) kits purchased from Caymen Chemical Co. (Ann Arbor, Mich.). Sample or standard dilutions were made with appropriate media and analyzed in triplicate. Results were obtained by extrapolation from a standard curve prepared in the media and expressed as pg or ng/ml of sample.

[1] = read-out: IC50 for LTC4 release

| inhibition of CoA-IT activity in the microsomal CoA-IT assay (CoA-IT) | IC50 (human monocytes; [1]) | IC50 (human monocytes; read-out: IC50 of PGE2 release) | Structure (SMILES) | inhibition of PAF production (human neutrophils) |
| --- | --- | --- | --- | --- |
| inhibit CoA-IT activity | ~1000 nM | 100 to 1000 nM | O=C(Nc1cc(C(F)(F)F)cc(C(F)(F)F)c1)Nc1ccccc1Oc1ccccc1C(=O)O [Example 2, 2-[2-[3-[3,5-Bis (trifluoromethyl)phenyl]ureido]phenoxy]benzoic acid] | positive activity |
| inhibit CoA-IT activity | 1000 to 2000 nM | > 10000 nM | O=C(Nc1cc(C(F)(F)F)cc(C(F)(F)F)c1)Nc1cc(C(F)(F)F)ccc1Oc1ccccc1C(=O)O [Example 7, 2-[2-[3-[3,5-Bis(trifluoromethyl)phenyl]ureido]-4-trifluoromethylphenoxy]benzoic acid] | positive activity |
